Measurements reported in patent US20100298141A1, “SUBSTITUTED PYRIDINE N-OXIDE HERBICIDES” (E. I. DU PONT DE NEMOURS AND COMPANY, priority 2007, published 2010).

What was measured:
johnsongrass = experiment: Test C pre-/postemergence test; format: in vivo, Sorghum halepense; settings: for Plant response rating, Johnsongrass: 31 g ai/ha, scale 0 to 100 (0 no effect, 100 complete control)
Text: (§1) Seeds of plant species selected from blackgrass (Alopecurus myosuroides), downy brome (Bromus tectorum), green foxtail (Setaria viridis), Italian ryegrass (Lolium multiflorum), wheat (Triticum aestivum), wild oat (Avena fatua), catchweed bedstraw (Galium aparine), Russian thistle (Salsola kali), […] (Cynodon dactylon), Surinam grass (Brachiaria decumbens), cocklebur (Xanthium strumarium), corn (Zea mays), crabgrass (Digitaria sanguinalis), woolly cupgrass (Eriochloa villosa), giant foxtail (Setaria faberii), Goosegrass (Eleusin indica), johnsongrass (Sorghum halepense), kochia (Kochia scoparia), lambsquarters (Chenopodium album), morningglory (Ipomoea coccinea), eastern black nightshade (Solanum ptycanthum), yellow nutsedge (Cyperus esculentus), pigweed (Amaranthus retroflexus), common ragweed (Ambrosia elation), soybean (Glycine max), common (oilseed) sunflower (Helianthus annuus), and velvetleaf (Abutilon theophrasti) were planted and treated preemergence with test chemicals formulated in a non-phytotoxic solvent mixture which included a surfactant. At the same time, plants selected from these crop and weed species and also winter barley (Hordeum vulgare), canarygrass (Phalaris minor), and chickweed (Stellaria media) were treated with postemergence applications of some of the test chemicals formulated in the same manner. Plants ranged in height from 2 to 18 cm (1- to 4-leaf stage) for postemergence treatments. […] At time of treatment, test pots were flooded to 3 cm above the soil surface, treated by application of test compounds directly to the paddy water, and then maintained at that water depth for the duration of the test. […] A dash (-) response means no test result.

soybean = experiment: Test C pre-/postemergence test; format: in vivo, Glycine max; settings: for Plant response rating, Soybean: 31 g ai/ha, scale 0 to 100 (0 no effect, 100 complete control)
Text: as §1

velvetleaf [1] = experiment: Test A pre-/postemergence greenhouse test; format: in vivo, Abutilon theophrasti; settings: for Velvetleaf plant response rating: 0 to 100 scale; for Plant response rating, Velvetleaf: 0 to 100 scale where 0 is no effect and 100 is complete control
Summary of the method: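 Sowing in loam/sand; same-day pre (directed soil spray) and post (foliar, 1–2 leaf, 2–10 cm) treatment with surfactant-containing non-phytotoxic solvent formulation; ~10 days in greenhouse; eye-scored injury against untreated plants.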

barnyardgrass = experiment: Test C flooded paddy test; format: in vivo, Echinochloa crus-galli; settings: Flood
Summary of the method: (§2)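 Compound was added to standing water 3 cm above soil, flood maintained, and plants held in a greenhouse before visual scoring against controls at 13 to 15 days.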

velvetleaf [2] = experiment: Test C pre-/postemergence test; format: in vivo, Abutilon theophrasti; settings: for Plant response rating, Velvetleaf: 31 g ai/ha, scale 0 to 100 (0 no effect, 100 complete control)
Text: as §1

corn = experiment: Test C pre-/postemergence test; format: in vivo, Zea mays; settings: for Plant response rating, Corn: 31 g ai/ha, scale 0 to 100 (0 no effect, 100 complete control)
Text: as §1

cocklebur = experiment: Test C pre-/postemergence test; format: in vivo, Xanthium strumarium
Text: as §1

morningglory = experiment: Test C pre-/postemergence test; format: in vivo, Ipomoea coccinea; settings: for Plant response rating, Morningglory: 31 g ai/ha, scale 0 to 100 (0 no effect, 100 complete control)
Text: as §1

giant foxtail = experiment: Test C pre-/postemergence test; format: in vivo, Setaria faberii; settings: for Plant response rating, Foxtail, Giant: 31 g ai/ha, scale 0 to 100 (0 no effect, 100 complete control)
Text: as §1

duck salad = experiment: Test C flooded paddy test; format: in vivo, Heteranthera limosa; settings: Flood
Summary of the method: as §2

woolly cupgrass = experiment: Test C pre-/postemergence test; format: in vivo, Eriochloa villosa; settings: for Plant response rating, Cupgrass, Woolly: 31 g ai/ha, scale 0 to 100 (0 no effect, 100 complete control)
Text: as §1

wild oat = experiment: Test C pre-/postemergence test; format: in vivo, Avena fatua
Text: as §1

downy brome = experiment: Test C pre-/postemergence test; format: in vivo, Bromus tectorum
Text: as §1

green foxtail = experiment: Test C pre-/postemergence test; format: in vivo, Setaria viridis
Text: as §1

blackgrass = experiment: Test C pre-/postemergence test; format: in vivo, Alopecurus myosuroides
Text: as §1

Italian ryegrass = experiment: Test C pre-/postemergence test; format: in vivo, Lolium multiflorum
Text: as §1

[3] = 62 g ai/ha, Preemergence, scale 0 to 100
[4] = 125 g ai/ha, preemergence, scale 0 (no effect) to 100 (complete control)
[5] = preemergence, 250 g ai/ha, scale 0 (no effect) to 100 (complete control)
[6] = Postemergence, 500 g ai/ha, 0 is no effect, 100 is complete control
[7] = Preemergence, 125 g ai/ha, 0 no effect, 100 complete control
[8] = 31 g ai/ha, scale 0 to 100 (0 no effect, 100 complete control)
[9] = 62 g ai/ha, scale 0 to 100, 0 no effect, 100 complete control, 13 to 15 days
[10] = 125 g ai/ha, scale 0 to 100, 0 no effect, 100 complete control, 13 to 15 days
[11] = 250 g ai/ha, scale 0 to 100, 0 no effect, 100 complete control, 13 to 15 days
[12] = Preemergence, 31 g ai/ha, scale 0 to 100 (0 no effect, 100 complete control)
[13] = 62 g ai/ha, scale 0 to 100 (0 no effect, 100 complete control)

## Cn1nc(C(F)(F)F)c(C[S+]([O-])c2cc(Cl)cc[n+]2[O-])c1Cl (racemic) [Compound 39]
johnsongrass; [3]
  Johnsongrass plant response rating: 80
johnsongrass; [4]
  Johnsongrass plant response rating: 85
johnsongrass; Preemergence
  Plant response rating, Johnsongrass: 30
johnsongrass; [5]
  Johnsongrass plant response rating: 85
soybean; [3]
  Soybean plant response rating: 0
soybean; [4]
  Soybean plant response rating: 10
soybean; Preemergence
  Plant response rating, Soybean: 0
soybean; [5]
  Soybean plant response rating: 10
Velvetleaf [1]; Postemergence, 125 g ai/ha, 0 is no effect, 100 is complete control
  Velvetleaf plant response rating: 40
Velvetleaf [1]; [6]
  Velvetleaf plant response rating: 60
Velvetleaf [1]; [7]
  Velvetleaf plant response rating: 70
Velvetleaf [1]; Preemergence, 500 g ai/ha
  Plant response rating, Velvetleaf: 100
barnyardgrass; [8]
  Plant response rating, Barnyardgrass: 0
barnyardgrass; [9]
  Plant response rating, Barnyardgrass: 0
barnyardgrass; [10]
  Plant response rating, Barnyardgrass: 30
barnyardgrass; [11]
  Plant response rating, Barnyardgrass: 65
Velvetleaf [2]; [3]
  Velvetleaf plant response rating: 45
Velvetleaf [2]; [4]
  Velvetleaf plant response rating: 60
Velvetleaf [2]; Preemergence
  Plant response rating, Velvetleaf: 30
Velvetleaf [2]; [5]
  Velvetleaf plant response rating: 100
corn; [3]
  Corn plant response rating: 5
corn; [4]
  Corn plant response rating: 70
corn; Preemergence
  Plant response rating, Corn: 0
corn; [5]
  Corn plant response rating: 80
cocklebur; [3]
  Cocklebur plant response rating: 0
cocklebur; [4]
  Cocklebur plant response rating: 0
cocklebur; [12]
  Plant response rating, Cocklebur: 0
cocklebur; [5]
  Cocklebur plant response rating: 0
morningglory; [3]
  Morningglory plant response rating: 80
morningglory; [4]
  Morningglory plant response rating: 100
morningglory; Preemergence
  Plant response rating, Morningglory: 30
morningglory; [5]
  Morningglory plant response rating: 100
Giant foxtail; [3]
  Foxtail, Giant plant response rating: 90
Giant foxtail; Preemergence
  Plant response rating, Foxtail, Giant: 20
Giant foxtail; [5]
  Foxtail, Giant plant response rating: 90
Duck salad; [8]
  Plant response rating, Ducksalad: 70
Duck salad; [9]
  Plant response rating, Ducksalad: 80
Duck salad; [10]
  Plant response rating, Ducksalad: 90
Duck salad; [11]
  Plant response rating, Ducksalad: 95
Woolly cupgrass; [3]
  Cupgrass, Woolly plant response rating: 85
Woolly cupgrass; [4]
  Cupgrass, Woolly plant response rating: 85
Woolly cupgrass; Preemergence
  Plant response rating, Cupgrass, Woolly: 40
Woolly cupgrass; [5]
  Cupgrass, Woolly plant response rating: 85

## CCn1nc(C(F)(F)F)c(CS(=O)(=O)c2cccc[n+]2[O-])c1OCC(F)(F)F [Compound 63]
johnsongrass; [3]
  Johnsongrass plant response rating: 85
johnsongrass; Preemergence
  Plant response rating, Johnsongrass: 85
johnsongrass; [5]
  Johnsongrass plant response rating: 98
Wild oat; [3]
  Oat, Wild plant response rating: 60
Wild oat; [4]
  Oat, Wild plant response rating: 85
Wild oat; [12]
  Plant response rating, Oat, Wild: 50
Wild oat; [5]
  Oat, Wild plant response rating: 95
soybean; [3]
  Soybean plant response rating: 5
soybean; Preemergence
  Plant response rating, Soybean: 0
soybean; [5]
  Soybean plant response rating: 50
Velvetleaf [1]; Postemergence, 125 g ai/ha
  Plant response rating, Velvetleaf: 60
Velvetleaf [1]; [6]
  Velvetleaf plant response rating: 80
Velvetleaf [1]; [7]
  Velvetleaf plant response rating: 60
Velvetleaf [1]; Preemergence, 500 g ai/ha
  Plant response rating, Velvetleaf: 100
barnyardgrass; [13]
  Plant response rating, Barnyardgrass: 40
barnyardgrass; [11]
  Plant response rating, Barnyardgrass: 40
Velvetleaf [2]; [3]
  Velvetleaf plant response rating: 80
Velvetleaf [2]; [4]
  Velvetleaf plant response rating: 85
Velvetleaf [2]; Preemergence
  Plant response rating, Velvetleaf: 50
Velvetleaf [2]; [5]
  Velvetleaf plant response rating: 100
corn; [3]
  Corn plant response rating: 85
corn; [4]
  Corn plant response rating: 90
corn; Preemergence
  Plant response rating, Corn: 5
corn; [5]
  Corn plant response rating: 100
Downy brome; [3]
  Bromegrass, Downy plant response rating: 70
Downy brome; [4]
  Bromegrass, Downy plant response rating: 98
Downy brome; [12]
  Plant response rating, Bromegrass, Downy: 40
Downy brome; [5]
  Bromegrass, Downy plant response rating: 100
morningglory; [3]
  Morningglory plant response rating: 0
morningglory; [4]
  Morningglory plant response rating: 0
morningglory; Preemergence
  Plant response rating, Morningglory: 0
morningglory; [5]
  Morningglory plant response rating: 0
Green foxtail; [3]
  Foxtail, Green plant response rating: 100
Green foxtail; [4]
  Foxtail, Green plant response rating: 100
Green foxtail; [12]
  Plant response rating, Foxtail, Green: 95
Green foxtail; [5]
  Foxtail, Green plant response rating: 100
Giant foxtail; [3]
  Foxtail, Giant plant response rating: 100
Giant foxtail; [4]
  Foxtail, Giant plant response rating: 100
Giant foxtail; Preemergence
  Plant response rating, Foxtail, Giant: 100
Giant foxtail; [5]
  Foxtail, Giant plant response rating: 100
blackgrass; [3]
  Blackgrass plant response rating: 100
blackgrass; [4]
  Blackgrass plant response rating: 100
blackgrass; [12]
  Plant response rating, Blackgrass: 70
blackgrass; [5]
  Blackgrass plant response rating: 100
Italian ryegrass; [3]
  Ryegrass, Italian plant response rating: 50
Italian ryegrass; [4]
  Ryegrass, Italian plant response rating: 60
Italian ryegrass; [12]
  Plant response rating, Ryegrass, Italian: 0
Italian ryegrass; [5]
  Ryegrass, Italian plant response rating: 100
Duck salad; [13]
  Plant response rating, Ducksalad: 0
Duck salad; [11]
  Plant response rating, Ducksalad: 75
Woolly cupgrass; [3]
  Cupgrass, Woolly plant response rating: 85
Woolly cupgrass; [4]
  Cupgrass, Woolly plant response rating: 85
Woolly cupgrass; Preemergence
  Plant response rating, Cupgrass, Woolly: 0
